Results published in PMC12848038, “O-GlcNAc and phosphorylation modifications on HtL1/FBA10 regulate wheat vernalization for flowering” (Nature Communications, 2025).

Molecular target: T1, HtL1/FBA10 (HtL1-GST) (Triticum aestivum, UniProt A0A1D5VE13)
T1 construct: gene LOC123071650; class I aldolase, homotetramer only predicted (SWISS-MODEL); cytosolic
T1 sequence (A0A1D5VE13 1-358): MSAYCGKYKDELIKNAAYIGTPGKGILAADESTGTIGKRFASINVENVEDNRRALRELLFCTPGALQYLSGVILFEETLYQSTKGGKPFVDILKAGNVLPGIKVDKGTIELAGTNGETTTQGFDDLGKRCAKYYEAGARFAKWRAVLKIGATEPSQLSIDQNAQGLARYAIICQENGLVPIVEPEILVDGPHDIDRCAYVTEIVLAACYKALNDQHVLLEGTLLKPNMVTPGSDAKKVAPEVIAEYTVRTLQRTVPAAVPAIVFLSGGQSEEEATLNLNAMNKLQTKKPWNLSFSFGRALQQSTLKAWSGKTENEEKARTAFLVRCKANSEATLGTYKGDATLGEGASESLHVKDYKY
Test: fructose-1,6-bisphosphate aldolase activity assay kit, microplate reader; enzyme kinetic curve
Type: biochemical
Conditions: GST fusion protein; no constant in text; kinetic curve only in figure

O=P(O)(O)OC[C@H]1OC(O)(COP(=O)(O)O)[C@@H](O)[C@@H]1O (stereo partly shown) [FBP, fructose 1,6-bisphosphate]
fructose-1,6-bisphosphate aldolase activity assay kit, microplate reader; enzyme: Enzyme kinetic curves and activity assays collectively demonstrated that HtL1 exhibits fructose-bisphosphate aldolase activity
